Active and inactive are the calls of the source. How the calls were made is not given here.

The test system of the series is rodent carcinogenicity bioassays, tumor incidence. Kind of series: CCRIS carcinogenicity studies. The method, boiled down: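 Archive of carcinogenicity, mutagenicity, tumor promotion and tumor inhibition results drawn from journals, NCI reports and other sources, expert-reviewed; covers 1985-2011 and is no longer updated.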

Consider `c1ccccc1`, for which the carcinogen call is, setting by setting: (Species: HUMAN, Route: INHALATION, DERMAL, Tumor Site: Type of Lesion: HEMATOPOIETIC SYSTEM (LEUKEMIA)) “active; positive”; (Species: MOUSE, Route: INHALATION, Dose: 0, 300 PPM 6 HR/D 5 D/WK FOR 16 WK (STUDY DURATION: LIFETIME), Tumor Site: Type of Lesion: HEMATOPOIETIC SYSTEM: LYMPHOMA) “active; positive”; (Species: MOUSE, Strain/Sex: B6C3F1/FEMALE, Route: GAVAGE, Dose: 0, 25, 50, 100 MG/KG IN CORN OIL 5 D/WK FOR 103 WK, Dose: 0, 25, 50, 100 MG/KG IN CORN OIL 5 D/WK FOR 103 WK, Tumor Site: Type of Lesion: LUNG: ALVEOLAR/BRONCHIOLAR CARCINOMA, ALVEOLAR/BRONCHIOLAR ADENOMA OR CARCINOMA, HEMATOPOIETIC SYSTEM: MALIGNANT LYMPHOM) “active; positive”; (Species: MOUSE, Strain/Sex: B6C3F1/MALE, Route: GAVAGE, Dose: 0, 25, 50, 100 MG/KG IN CORN OIL 5 D/WK FOR 103 WK, Dose: 0, 25, 50, 100 MG/KG IN CORN OIL 5 D/WK FOR 103 WK, Tumor Site: Type of Lesion: LUNG: ALVEOLAR/BRONCHIOLAR CARCINOMA, ALVEOLAR/BRONCHIOLAR ADENOMA, HEMATOPOIETIC SYSTEM: MALIGNANT LYMPHOMA, LEUKEMIA O) “active; positive”; (Species: MOUSE, Strain/Sex: C57BL/FEMALE, Route: INHALATION, Dose: 0, 300 PPM 6 HR/D 5 D/WK FOR 16 WK (STUDY DURATION: 64 WK), Tumor Site: Type of Lesion: LYMPHATIC SYSTEM: LYMPHOMA) “active; positive”; (Species: MOUSE, Strain/Sex: C57BL/FEMALE, Route: INHALATION, Dose: 0, 300 PPM 6 HR/D 5 D/WK FOR 16 WK (STUDY DURATION: 750 D), Tumor Site: Type of Lesion: HEMATOPOIETIC SYSTEM: LYMPHOCYTIC LEUKEMIA, LEUKEMIA, THYMUS GLAND: LEUKEMIA, ZYMBAL GLAND: TUMOR, OVARY: TUMOR, Tumor Site: Type of Lesion: HEMATOPOIETIC SYSTEM: LYMPHOCYTIC LEUKEMIA, LEUKEMIA, THYMUS GLAND: LEUKEMIA, ZYMBAL GLAND: TUMOR, OVARY: TUMOR) “active; positive”. Besides, the carcinogen call runs as follows: (Species: MOUSE, Strain/Sex: C57BL/MALE, Route: INHALATION, Dose: 0, 300 PPM 6HR/D, 5D/WK FOR 1 WK FOLLOWED BY 2 WK NO TREATMENT, CYCLE REPEATED FOR LIFESPAN (STUDY DURATION: LIFESPAN), Tumor Site: Type of Lesion: LUNG: ADENOMA, HEMATOPOIETIC SYSTEM: LEUKEMIA OR LYMPHOMA, ZYMBAL GLAND: CARCINOMA, Tumor Site: Type of Lesion: LUNG: ADENOMA, HEMATOPOIETIC SYSTEM: LEUKEMIA OR LYMPHOMA, ZYMBAL GLAND: CARCINOMA) “active; positive”; (Species: MOUSE, Strain/Sex: C57BL/MALE, Route: INHALATION, Dose: 0, 300 PPM 6 HR/D, 5 D/WK FOR LIFE, Tumor Site: Type of Lesion: HEMATOPOIETIC SYSTEM: LYMPHOCYTIC LYMPHOMA) “active; positive”; (Species: MOUSE, Strain/Sex: C57BL/MALE, Route: INHALATION, Dose: 0, 1200 PPM 6HR/D, 5D/WK FOR 10 WK (STUDY DURATION: LIFESPAN)) “inactive; negative”; (Species: MOUSE, Strain/Sex: CBA/CA BNL/FEMALE, Route: INHALATION, Dose: 0, 300 PPM 6 HR/D 5 D/WK FOR 16 WK (STUDY DURATION: >1100 D), Tumor Site: Type of Lesion: HEMATOPOIETIC SYSTEM: MYELOGENOUS NEOPLASM) “active; positive”; (Species: MOUSE, Strain/Sex: CBA/CA BNL/MALE, Route: INHALATION, Dose: 0, 100, 300 PPM 6 HR/D 5 D/WK FOR 16 WK (STUDY DURATION: >1100 D), Dose: 0, 100, 300 PPM 6 HR/D 5 D/WK FOR 16 WK (STUDY DURATION: >1100 D), Tumor Site: Type of Lesion: HEMATOPOIETIC SYSTEM: MYELOGENOUS NEOPLASM) “active; positive”; (Species: MOUSE, Strain/Sex: CBA/MALE, Route: INHALATION, Dose: 0, 300 PPM 6 HR/D 5 D/WK FOR 16 WK (STUDY DURATION: 22 MO), Tumor Site: Type of Lesion: LYMPHATIC SYSTEM: MALIGNANT LYMPHOMA, PREPUTIAL GLAND: SQUAMOUS CELL CARCINOMA, LUNG: ADENOMA, Tumor Site: Type of Lesion: LYMPHATIC SYSTEM: MALIGNANT LYMPHOMA, PREPUTIAL GLAND: SQUAMOUS CELL CARCINOMA, LUNG: ADENOMA) “active; positive”. For the same compound, the carcinogen call is, setting by setting: (Species: MOUSE, Strain/Sex: CD-1/MALE, Route: INHALATION, Dose: 0, 300 PPM 6HR/D, 5D/WK FOR 1 WK FOLLOWED BY 2 WK NO TREATMENT, CYCLE REPEATED FOR LIFESPAN (STUDY DURATION: LIFESPAN), Tumor Site: Type of Lesion: LUNG: ADENOMA, HEMATOPOIETIC SYSTEM: LEUKEMIA OR LYMPHOMA, ZYMBAL GLAND: CARCINOMA, Tumor Site: Type of Lesion: LUNG: ADENOMA, HEMATOPOIETIC SYSTEM: LEUKEMIA OR LYMPHOMA, ZYMBAL GLAND: CARCINOMA) “active; positive”; (Species: MOUSE, Strain/Sex: CD-1/MALE, Route: INHALATION, Dose: 0, 1200 PPM 6HR/D, 5D/WK FOR 10 WK (STUDY DURATION: LIFESPAN), Tumor Site: Type of Lesion: LUNG: ADENOMA, HEMATOPOIETIC SYSTEM: LEUKEMIA OR LYMPHOMA, ZYMBAL GLAND: CARCINOMA, Tumor Site: Type of Lesion: LUNG: ADENOMA, HEMATOPOIETIC SYSTEM: LEUKEMIA OR LYMPHOMA, ZYMBAL GLAND: CARCINOMA) “active; positive”; (Species: MOUSE, Strain/Sex: EU-PIM-1/FEMALE, Route: GAVAGE, Dose: 0, 50, 100 MG/KG 1/D FOR 40 WK (STUDY DURATION: 40 WK), Dose: 0, 50, 100 MG/KG 1/D FOR 40 WK (STUDY DURATION: 40 WK)) “inactive; negative”; (Species: MOUSE, Strain/Sex: EU-PIM-1/MALE, Route: GAVAGE, Dose: 0, 50, 100 MG/KG 1/D FOR 40 WK (STUDY DURATION: 40 WK), Dose: 0, 50, 100 MG/KG 1/D FOR 40 WK (STUDY DURATION: 40 WK)) “inactive; negative”; (Species: MOUSE, Strain/Sex: SWISS/FEMALE, Route: GAVAGE, Dose: 0, 500 MG/KG IN OLIVE OIL 1/D FOR 4 TO 5 D/WK FOR 78 WK (STUDY DURATION: LIFETIME), Tumor Site: Type of Lesion: MAMMARY GLAND: CARCINOMA, LUNG: TUMORS, ZYMBAL GLAND: CARCINOMA, Tumor Site: Type of Lesion: MAMMARY GLAND: CARCINOMA, LUNG: TUMORS, ZYMBAL GLAND: CARCINOMA) “active; positive”; (Species: MOUSE, Strain/Sex: SWISS/FEMALE, Route: INTRAGASTRIC, Dose: 0, 500 MG/KG IN OLIVE OIL 1/D 4-5 D/WK FOR 78 WK (STUDY DURATION: LIFESPAN), Tumor Site: Type of Lesion: LUNG: ADENOMA, MAMMARY GLAND: MALIGNANT TUMOR) “active; positive”. Also, the carcinogen call is “inactive; negative” (Species: MOUSE, Strain/Sex: SWISS/FEMALE, Route: INTRAPERITONEAL, Dose: 0, 36.1, 137.3 UMOL ADMINISTERED AS 3 UNEQUAL DOSES (1/7, 2/7, AND 4/7 OF THE TOTAL DOSE) OVER A 2-WK PERIOD (STUDY DURA, Dose: 0, 36.1, 137.3 UMOL ADMINISTERED AS 3 UNEQUAL DOSES (1/7, 2/7, AND 4/7 OF THE TOTAL DOSE) OVER A 2-WK PERIOD (STUDY DURA); “active; positive” (Species: MOUSE, Strain/Sex: SWISS/MALE, Route: GAVAGE, Dose: 0, 500 MG/KG IN OLIVE OIL 1/D FOR 4 TO 5 D/WK FOR 78 WK (STUDY DURATION: LIFETIME), Tumor Site: Type of Lesion: LUNG: TUMOR, ZYMBAL GLAND: CARCINOMA); “active; positive” (Species: MOUSE, Strain/Sex: SWISS/MALE, Route: INTRAGASTRIC, Dose: 0, 500 MG/KG IN OLIVE OIL 1/D 4-5 D/WK FOR 78 WK (STUDY DURATION: LIFESPAN), Tumor Site: Type of Lesion: ZYMBAL GLAND: CARCINOMA, LUNG: ADENOMA); “inactive; negative” (Species: MOUSE, Strain/Sex: SWISS/MALE, Route: INTRAPERITONEAL, Dose: 0, 36.1, 137.3 UMOL ADMINISTERED AS 3 UNEQUAL DOSES (1/7, 2/7, AND 4/7 OF THE TOTAL DOSE) OVER A 2-WK PERIOD (STUDY DURA, Dose: 0, 36.1, 137.3 UMOL ADMINISTERED AS 3 UNEQUAL DOSES (1/7, 2/7, AND 4/7 OF THE TOTAL DOSE) OVER A 2-WK PERIOD (STUDY DURA); “active; positive (highest dose)” (Species: Mouse, Strain/Sex: C57BL/6 (heterozygous Trp53-deficient)/Male, Route: Inhalation, Dose: 0, 33, 100, 300 ppm 6 hr/d, 5 d/wk for 26 wks, then no exposure for lifetime, Dose: 0, 33, 100, 300 ppm 6 hr/d, 5 d/wk for 26 wks, then no exposure for lifetime, Tumor Site: Type of Lesion: Blood: hematopoietic neoplasms (38, 41, 36, 89%). Lymphoid tissue: thymic lymphoma (0, 4,16, 73%)).

The values above are taken from PubChem BioAssay AID1259411 (Chemical Carcinogenesis Research Information System (CCRIS), 2018).
